Legend:
Format in all cases: functional
HT-29 = experiment: Antiproliferative activity against human HT-29 cells assessed as growth inhibition after 72 hrs by SRB assay; settings: HT-29, 72 h
A549 = experiment: Antiproliferative activity against human A549 cells assessed as growth inhibition after 72 hrs by SRB assay; settings: A549, 72 h
MDA-MB-231 = experiment: Antiproliferative activity against human MDA-MB-231 cells assessed as growth inhibition after 72 hrs by SRB assay; settings: MDA-MB-231, 72 h
PSN1 = experiment: Antiproliferative activity against human PSN1 cells assessed as growth inhibition after 72 hrs by SRB assay; settings: PSN1, 72 h

Measured: GI50

C=C1C[C@](OC)([C@H](O)C(=O)N[C@@H](OC)[C@@H]2C[C@@H](O)C(C)(C)[C@@H](C[C@@H](CO)OC)O2)O[C@H](C)[C@@H]1C
2 to 2.9 nM: HT-29 | A549 | MDA-MB-231 | PSN1

Reference: ChEMBL document CHEMBL4190263, “Bacterial Production of a Pederin Analogue by a Free-Living Marine Alphaproteobacterium” (2017)
